Assay results published in publication PMC12621202, “RTx-303, an Orally Bioavailable Polθ Polymerase Inhibitor That Potentiates PARP Inhibitors in BRCA Mutant Tumors” (Journal of Medicinal Chemistry, 2025).

How the values were obtained:
Mouse plasma stability = type: in vitro ADME; details: CD1, pH 7.4, read-out: T1/2 mouse plasma
Method: Mouse Plasma and PBS Stability. The stability of compounds at 1 μM were tested in duplicate at 37 °C in 500 μL of either 2.5% DMSO/97.5% mouse plasma (Innovative Research IGMSCD1PLANH50 ML; pooled plasma from CD1 mice; sodium heparin as anticoagulant; pH adjusted to 7.4) or 2.5% DMSO/97.5% phosphate-buffered saline (pH = 7.4 PBS: 136.9 mM NaCl; 2.68 mM KCl; 8.1 mM Na2HPO4; 1.47 mM KH2PO4; 0.9 mM CaCl2; 0.49 mM MgCl2). At 0, 30, 90, and 180 min time points, 50 μL aliquots were transferred to wells in a 96-well plate on ice containing 200 μL of ACN:water 85:15 containing the internal standard. After centrifugation (10 min; 4000 × g), supernatants were analyzed by LC/MS as described. Standard curves (0–1000 nM) were generated in PBS and plasma. Data were fit to a one-phase decay equation using GraphPad Prism 5.04 to generate T1/2 values.

[1] = test system: other recombinant DNA polymerases, including the related A-family Polγ; assay: DNA polymerase selectivity (primer extension); type: biochemical; details: in vitro primer extension
Source text: A. Denaturing gel showing primer extension by the indicated DNA polymerases in the presence or absence of RT x-303. B. Bar plot showing % relative extension by the indicated DNA polymerases in the presence and absence of RT x-303.
(also on this page, place not known: Extension to DMSO control RTx-303. % relative RTx-303.)
(1 picture or pasted object on this page, not shown here)

DLD1 BRCA2–/– cells = assay: γH2AX immunofluorescence; type: cell-based, human; details: combination with olaparib versus either agent alone
Method: Immunofluorescence of γH2AX: Cells were plated on 6-well plates with glass-coverslips and treated with RTX-284 one day after plating. Four days after treatment, cells were fixed with 4% (v/v) paraformaldehyde for 20 min at 4 °C, washed with PBS, permeabilized with 0.5% (v/v) Triton X for 10 min and blocked with PBS containing 3% BSA. Cells were incubated with primary antibody (rabbit antigamma H2AX (p Ser139) antibody, Bethyl Lab #A700–053, 1:500 dilution in 1% BSA in PBS) overnight at 4 °C followed by 3x washes with PBS and then 1 h incubation with secondary antibody (Goat anti-Rabbit IgG (H+L) Secondary Antibody, DyLight 488 (Thermo #35552) 1:2000 dilution in 1% BSA in PBS). After 3x washing in PBS for 3 min, slides were mounted in 20 μl ProLong Antifade with DAPI (LifeTechnologies) to counterstain the nuclei. Cells were visualized and imaged using Nikon A1R Confocal microscope at a 63X objective magnification, and images were analyzed using ImageJ software. For quantification, >50 cells were counted for all conditions from three independent experiments.

kinase panel = assay: Kinase panel profiling (summary); type: biochemical, human; details: 10 μM
Method: (§1) Supplementary Fig. 8 Pharmacological profiling of RTx-303 against kinases.
(§2) % activity of the indicated kinases is shown following incubation with 10 µM RTx-303 in vitro.
(§3) Data represent mean (n = 2).

Hepatocyte stability [2] = type: in vitro ADME; details: dog (Beagle) hepatocytes, male; read-out: Dog (Beagle) ^+ (T1/2 min)
[3] = Tolerability, mouse body weight; type: in vivo, BALB/c mice; details: 200 mg/kg, bid, mice
Method: Fema le , Ve hicl e, - mg/k g, p.o., BID x 7DFemale, vehicle (n=2)
Fema le , RTx- 30 3, 15 0mg/k g, p.o., BI D x 7 DFemale, RTx-303, 150 mg/kg (po,bid)(n=2)
Fema le , RTx- 30 3, 20 0mg/k g, p.o., BI D x 7 D
Female, RTx-303, 200 mg/kg (po,bid)(n=2)
30 Male , V ehic le, -mg/ kg, p.o. , BID x 7D
Male , RTx-30 3, 15 0mg/k g, p.o., BID x 7DMale, RTx-303, 150 mg/kg (po,bid)(n=2)
20 Male , RTx-30 3, 20 0mg/k g, p.o., BID x 7DMale, RTx-303, 200 mg/kg (po,bid)(n=2)
Days after the start of treatment
Supplementary Fig. 12 Effect of RTx-303 on mouse body weight.
Scatter plot showing % body weight change following administration of the indicated
concentrations of RTx-303 in male and female BALB/c mice. Data represent mean (n=2).

[4] = Mouse plasma protein binding; type: in vitro ADME
Source text: 4 In Vitro ADME and Potency of Chiral Derivatives | column: Mouse plasma protein binding (% free)

Hepatocyte stability [5] = type: in vitro ADME; details: rat (SD) hepatocytes, male; read-out: Rat (SD)^+ (T1/2 min)
Hepatocyte stability [6] = type: in vitro ADME; details: cynomolgus monkey; monkey hepatocytes, male; read-out: Monkey (Cynomologous) ^+ (T1/2 min)
[7] = test system: ID8 Trp53–/–;Brca2–/– PARPi-resistant cells; assay: Cell viability (WST-1) of PARPi-resistant ID8 cells; type: cell-based, mouse; details: PARPi-resistant ID8 cells, 5 μM RTx-303 added to olaparib
Method: Cells were seeded on a 96-well plate at 1 × 10^4 cells/well and treated with olaparib, RTx-284 or a combination. Each sample had three replicates. The medium was replaced every 2 days. Cell viability was assessed after 5-day treatment by the WST-1 assay (Sigma, Cat. # 5015944001) according to the manufacturer instructions.

CDK5/p25(h) = target: T1, CDK5/p25(h) (Homo sapiens, UniProt Q00535); assay: Kinase profiling; type: biochemical; details: mean n=2, read-out: % Activity with 10 µM RTx-303
T1 construct: purchased Eurofins (KinaseProfiler)
T1 sequence (Q00535 whole entry): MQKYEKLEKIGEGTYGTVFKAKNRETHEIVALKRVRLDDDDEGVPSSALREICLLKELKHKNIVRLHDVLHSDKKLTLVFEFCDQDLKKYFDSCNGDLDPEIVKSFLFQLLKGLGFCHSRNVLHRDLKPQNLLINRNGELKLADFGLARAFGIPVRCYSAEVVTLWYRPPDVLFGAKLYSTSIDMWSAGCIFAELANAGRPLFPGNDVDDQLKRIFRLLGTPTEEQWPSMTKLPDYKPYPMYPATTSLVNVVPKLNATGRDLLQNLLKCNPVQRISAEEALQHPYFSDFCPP
T1 sequence (Q15078 99-307 partner limits assumed): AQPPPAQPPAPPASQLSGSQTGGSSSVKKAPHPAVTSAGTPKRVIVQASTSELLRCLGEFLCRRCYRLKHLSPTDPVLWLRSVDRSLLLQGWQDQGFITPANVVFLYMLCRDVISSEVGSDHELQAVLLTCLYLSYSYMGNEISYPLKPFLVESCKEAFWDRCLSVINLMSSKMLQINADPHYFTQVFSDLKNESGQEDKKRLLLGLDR
Method: as §1, §2, §3

CDKL4(h) = target: T2, CDKL4(h) (Homo sapiens, UniProt Q5MAI5); assay: Kinase profiling; type: biochemical; details: mean n=2, read-out: % Activity with 10 µM RTx-303
T2 construct: purchased Eurofins (KinaseProfiler)
T2 sequence (Q5MAI5 whole entry): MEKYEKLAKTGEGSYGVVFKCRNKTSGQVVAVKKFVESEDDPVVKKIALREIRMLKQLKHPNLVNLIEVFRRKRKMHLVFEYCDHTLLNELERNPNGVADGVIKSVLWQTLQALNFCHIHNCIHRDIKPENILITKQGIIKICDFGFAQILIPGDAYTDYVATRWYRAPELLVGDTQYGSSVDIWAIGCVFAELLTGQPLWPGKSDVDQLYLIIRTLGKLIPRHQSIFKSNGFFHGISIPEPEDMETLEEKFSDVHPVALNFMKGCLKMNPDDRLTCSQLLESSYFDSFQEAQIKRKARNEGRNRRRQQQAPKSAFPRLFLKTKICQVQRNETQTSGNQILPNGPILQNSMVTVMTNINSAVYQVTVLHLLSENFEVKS
Method: as §1, §2, §3

PDHK2(h) = target: T3, PDHK2(h) (Homo sapiens, UniProt Q15119); assay: Kinase profiling; type: biochemical; details: mean n=2, read-out: % Activity with 10 µM RTx-303
T3 construct: purchased Eurofins (KinaseProfiler)
Method: as §1, §2, §3

CDK2/cyclinE(h) = target: T4, CDK2/cyclinE(h) (Homo sapiens, UniProt P24941); assay: Kinase profiling; type: biochemical; details: mean n=2, read-out: % Activity with 10 µM RTx-303
T4 construct: purchased Eurofins (KinaseProfiler)
Method: as §1, §2, §3

CDK7/cyclinH/MAT1(h) = target: T5, CDK7/cyclinH/MAT1(h) (Homo sapiens, UniProt P50613); assay: Kinase profiling; type: biochemical; details: mean n=2, read-out: % Activity with 10 µM RTx-303
T5 construct: purchased Eurofins (KinaseProfiler)
T5 sequence (P50613 whole entry): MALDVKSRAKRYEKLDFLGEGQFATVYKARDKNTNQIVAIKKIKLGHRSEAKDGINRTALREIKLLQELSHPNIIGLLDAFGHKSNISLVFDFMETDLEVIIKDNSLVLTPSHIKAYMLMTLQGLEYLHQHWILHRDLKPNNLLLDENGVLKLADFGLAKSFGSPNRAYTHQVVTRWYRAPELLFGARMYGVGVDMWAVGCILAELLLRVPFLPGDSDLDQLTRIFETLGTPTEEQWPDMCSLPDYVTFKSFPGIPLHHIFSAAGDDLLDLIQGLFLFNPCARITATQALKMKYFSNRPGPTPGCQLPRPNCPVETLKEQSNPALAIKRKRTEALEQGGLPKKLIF
T5 sequence (P51946 whole entry partner): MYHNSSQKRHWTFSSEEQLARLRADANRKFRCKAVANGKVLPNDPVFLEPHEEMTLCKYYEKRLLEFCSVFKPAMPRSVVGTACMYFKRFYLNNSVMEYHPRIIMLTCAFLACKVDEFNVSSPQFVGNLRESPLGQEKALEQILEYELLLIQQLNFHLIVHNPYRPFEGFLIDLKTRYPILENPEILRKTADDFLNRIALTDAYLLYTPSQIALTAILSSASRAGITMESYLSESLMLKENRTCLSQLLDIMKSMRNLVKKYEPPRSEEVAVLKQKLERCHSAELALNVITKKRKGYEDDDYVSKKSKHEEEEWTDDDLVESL
T5 sequence (P51948 whole entry partner): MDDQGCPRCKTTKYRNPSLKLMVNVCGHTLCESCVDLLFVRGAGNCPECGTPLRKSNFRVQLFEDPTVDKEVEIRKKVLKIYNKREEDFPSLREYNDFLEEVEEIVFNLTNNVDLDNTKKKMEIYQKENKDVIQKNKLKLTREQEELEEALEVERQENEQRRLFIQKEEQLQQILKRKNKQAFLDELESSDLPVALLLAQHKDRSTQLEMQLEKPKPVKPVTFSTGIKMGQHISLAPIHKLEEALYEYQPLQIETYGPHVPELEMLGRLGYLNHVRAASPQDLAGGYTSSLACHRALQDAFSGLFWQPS
Method: as §1, §2, §3

TTBK1(h) = target: T6, TTBK1(h) (Homo sapiens, UniProt Q5TCY1); assay: Kinase profiling; type: biochemical; details: mean n=2, read-out: % Activity with 10 µM RTx-303
T6 construct: purchased Eurofins (KinaseProfiler)
T6 sequence (Q5TCY1 whole entry): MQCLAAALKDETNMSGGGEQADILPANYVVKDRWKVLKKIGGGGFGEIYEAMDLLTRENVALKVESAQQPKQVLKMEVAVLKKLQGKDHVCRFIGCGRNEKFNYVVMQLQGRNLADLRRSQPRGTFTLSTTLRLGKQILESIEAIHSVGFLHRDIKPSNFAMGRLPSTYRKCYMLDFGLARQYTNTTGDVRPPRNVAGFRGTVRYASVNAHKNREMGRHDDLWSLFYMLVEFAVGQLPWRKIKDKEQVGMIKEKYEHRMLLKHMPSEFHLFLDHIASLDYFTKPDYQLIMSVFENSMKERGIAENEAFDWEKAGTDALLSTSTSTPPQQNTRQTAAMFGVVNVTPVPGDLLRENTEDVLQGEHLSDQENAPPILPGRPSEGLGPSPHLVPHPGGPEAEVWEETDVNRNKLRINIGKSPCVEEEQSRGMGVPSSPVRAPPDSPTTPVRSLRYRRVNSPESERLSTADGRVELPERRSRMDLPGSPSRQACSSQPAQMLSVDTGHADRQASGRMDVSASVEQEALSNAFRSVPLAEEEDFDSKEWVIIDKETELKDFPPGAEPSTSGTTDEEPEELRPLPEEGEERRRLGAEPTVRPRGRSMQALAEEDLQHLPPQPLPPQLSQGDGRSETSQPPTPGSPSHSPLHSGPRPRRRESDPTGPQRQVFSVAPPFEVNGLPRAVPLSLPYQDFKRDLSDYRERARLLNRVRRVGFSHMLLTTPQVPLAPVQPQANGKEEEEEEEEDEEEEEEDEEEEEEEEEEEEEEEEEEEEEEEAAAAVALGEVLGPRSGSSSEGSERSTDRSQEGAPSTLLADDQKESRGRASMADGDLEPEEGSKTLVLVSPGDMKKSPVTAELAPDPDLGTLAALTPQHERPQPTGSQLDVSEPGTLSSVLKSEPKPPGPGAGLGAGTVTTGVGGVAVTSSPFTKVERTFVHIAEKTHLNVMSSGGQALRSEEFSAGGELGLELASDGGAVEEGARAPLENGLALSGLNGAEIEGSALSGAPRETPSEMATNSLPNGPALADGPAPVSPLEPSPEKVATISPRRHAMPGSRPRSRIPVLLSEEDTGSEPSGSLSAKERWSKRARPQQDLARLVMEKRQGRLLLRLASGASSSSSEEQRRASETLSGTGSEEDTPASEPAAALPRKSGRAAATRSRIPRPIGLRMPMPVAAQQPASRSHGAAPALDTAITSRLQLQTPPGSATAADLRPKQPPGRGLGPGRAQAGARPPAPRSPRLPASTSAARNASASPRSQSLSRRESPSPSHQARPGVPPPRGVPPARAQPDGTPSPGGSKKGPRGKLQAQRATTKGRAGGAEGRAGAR
Method: as §1, §2, §3

DNA-PK(h) = target: T7, DNA-PK(h) (Homo sapiens, UniProt P78527); assay: Kinase profiling; type: biochemical; details: mean n=2, read-out: % Activity with 10 µM RTx-303
T7 construct: purchased Eurofins (KinaseProfiler)
Method: as §1, §2, §3

Row | SMILES | half-life at 1 μM (Mouse plasma stability) [min] | inhibition of other DNA polymerases [1] | half-life at 1 μM (Hepatocyte stability [2]) [min] | Mouse plasma protein binding (% free) [4] [% free] | half-life at 1 μM (Hepatocyte stability [5]) [min] | half-life at 1 μM (Hepatocyte stability [6]) [min] | also measured
1 | [2H]C([2H])([2H])N(C(=O)Oc1c(N2CCN(CC(O)CNC)C2=O)cc(C(F)(F)F)cc1C(F)(F)F)c1ccc(F)cc1 (centres unmarked) [RTx-283, 2-(3-(2-Hydroxy-3-(methylamino)propyl)-2-oxoimidazolidin-1-yl)-4,6-bis(trifluoromethyl)phenyl (4-fluorophenyl)(methyl-d3)carbamate] | > 180 |  |  |  |  |  | 
2 | [2H]C([2H])([2H])N(C(=O)Oc1c(N2CCN(CC(O)CN(C)C)C2=O)cc(C(F)(F)F)cc1C(F)(F)F)c1ccc(F)cc1 (centres unmarked) [RTx-284, 2-{3-[3-(Dimethylamino)-2-hydroxypropyl]-2-oxoimidazolidin-1-yl}-4,6-bis(trifluoromethyl)phenyl N-(4-fluorophenyl)-N-(methyl-d3)-carbamate] | > 180 | no inhibition |  |  |  |  | levels of DNA damage marker γH2AX (DLD1 BRCA2–/– cells): significantly higher levels
3 | [2H]C([2H])([2H])N(C(=O)Oc1c(N2CCN(C[C@H](O)CN(C)C)C2=O)cc(C(F)(F)F)cc1C(F)(F)F)c1ccc(F)cc1 [RTx-303] |  | no significant inhibition | 9.9 | 3.9 | 50.6 | 13.2 | inhibition against a kinase panel (kinase panel): no significant inhibition; body weight and health signs at high dose [3]: no significant body weight loss or unhealthy signs; potentiation of olaparib [7]: potentiated olaparib; activity at 10 µM (CDK5/p25(h)): 104%; activity at 10 µM (CDKL4(h)): 99%; activity at 10 µM (PDHK2(h)): 98%; activity at 10 µM (CDK2/cyclinE(h)): 109%; activity at 10 µM (CDK7/cyclinH/MAT1(h)): 109%; activity at 10 µM (TTBK1(h)): 101%; activity at 10 µM (DNA-PK(h)): 94%
4 | [2H]C([2H])([2H])N(C(=O)Oc1c(N2CCN(C[C@H](O)CNC)C2=O)cc(C(F)(F)F)cc1C(F)(F)F)c1ccc(F)cc1 [RTx-315] |  |  | 19.6 | 2.1 | 121 | 31.9 | 
